Data reported in publication PMC4595834, “Comparison of carbon-sulfur and carbon-amine bond in therapeutic drug: 4β-S-aromatic heterocyclic podophyllum derivatives display antitumor activity” (Scientific Reports, 2015).

Key:
[1] = MTT cytotoxicity assay, normal hepatocyte HL-7702; format: cell-based; conditions: HL-7702 cells (normal hepatocyte cell line), normal human hepatocyte cell line, drug exposure 48 h, mean ± SD (n = 3), read-out: Cytotoxic activity (IC50) HL-7702
Description: (§1) Cytotoxicity of the podophyllum derivatives were determined by reading the absorbance at 492 nm on a multiplate reader (Thermo Fisher Scientific, Multiskan MK3). Cell cycle analysis and apoptosis analysis were analyzed by flow cytometry (Accuri C6, BD). Immunofluorescence images were recorded using laser scanning microscope (Perkin-Elmer & Olympus, UltraView VoX & Ix81). The gel for the decatenation of kDNA by Topoisomerase II study was photographed with UV illumination, Tanon 1600 (Tanon Science & Technology Co., Ltd., Shanghai). The nitrocellulose blotting membrane for western blot analysis was visualized using X-ray film processor and X-ray film, Fujifilm SUPER RX-N-C.
(§2) Cytotoxicity assay was performed on human lung adenocarcinoma epithelial cell line (A549), henrietta lacks strain of cancer cells (HeLa), human gastric carcinoma cell line (BGC 823), and normal human hepatocyte cell line (HL-7702). Cells (3500–13,000) in a 100 μL culture medium per well were seeded into 96-well microtest plates (Falcon, CA). A549 cell lines, HeLa cell lines and HL-7702 cell lines were cultured in DMEM supplemented with 10% CS, 100 mg/L penicillin G, 100 mg/L streptomycin. BGC 823 cell lines were cultured in RPMI medium 1640 supplemented with 10% CS, 100 mg/L penicillin G, and 100 mg/L streptomycin. The cells were incubated at 37 °C, in a humidified atmosphere with 5% CO2 for 48 h. For all cell lines, the microculture tetrazolium [3-(4, 5-dimethylthiazol-2-yl)-2, 5-diphenyltetrazolium bromide, MTT; Sigma, St. Louis, MO] assay was performed to measure the cytotoxic effects. Drug stock solutions (the each drug concentration was 0.5, 1, 10, 20, 50, 100, 200, and 500 μM, respectively) were prepared in DMSO and the final solvent concentration was ≤ 2% DMSO (v/v), a concentration without effect on cell replication. Initial seeding densities varied among the cell lines to ensure a final absorbance reading in control (untreated) cultures in the range 0.6–0.8 A492 units. Drug exposure was for 2 days, and the IC50 value, the drug concentration that reduced the absorbance by 50%, was interpolated from dose-response data. Each test was performed in triplicate, and absorbance readings varied no more than 5%. Data presented as means ± standard deviation (SD). Statistical analyses were performed by the analysis of variance (ANOVA). All statistical analyses were performed using Origin version 8.0 ([…], OriginLab Corp., Northampton, MA, USA). Sigmoidal dose responses and non-linear regression analyses were undertaken to identify half-maximal concentrations for each of the drugs. To evaluate differences in IC50 concentrations, analysis of variance combined with Tukey’s multiple range test was used.

BGC-823 cells = experiment: MTT cytotoxicity assay, BGC-823; format: cell-based, human; conditions: Homo sapiens, BGC-823; MTT, drug exposure 48 h, mean ± SD (n = 3); read-out: Cytotoxic activity (IC50) BGC-823
Description: as §1, §2

HeLa cells = experiment: MTT cytotoxicity assay, HeLa; format: cell-based, human; conditions: Homo sapiens, HeLa; MTT, drug exposure 48 h, mean ± SD (n = 3); read-out: Cytotoxic activity (IC50) HeLa
Description: as §1, §2

A549 cells = experiment: MTT cytotoxicity assay, A549; format: cell-based, human; conditions: Homo sapiens, A549, 48 h, MTT, drug exposure 48 h, mean ± SD (n = 3); read-out: Cytotoxic activity (IC50) A549
Description: as §1, §2

Row | SMILES | IC50 at 48 h [1] [µM] | IC50 (BGC-823 cells) [µM] | IC50 (HeLa cells) [µM] | IC50 (A549 cells) [µM]
1 | COc1cc([C@@H]2c3cc4c(cc3[C@@H](Nc3ccccn3)[C@H]3COC(=O)[C@H]23)OCO4)cc(OC)c1O [3′N, 4β-NH-(pyridine-2)-4-deoxy-4′-demethyl-podophyllotoxin] | 122 ± 5.88 | 111 ± 3.55 | 96.5 ± 7.64 | 122 ± 4.6
2 | COc1cc([C@@H]2c3cc4c(cc3[C@@H](Nc3nncs3)[C@H]3COC(=O)[C@H]23)OCO4)cc(OC)c1O [2′N, 4β-NH-(1,3,4-thiodizole-2)-4-deoxy-4′-demethyl-podophyllotoxin] | 28.7 ± 1.31 | 15.4 ± 0.63 | 10.3 ± 0.41 | 2.22 ± 0.31
3 | COc1cc([C@@H]2c3cc4c(cc3[C@@H](Sc3ncccn3)[C@H]3COC(=O)[C@H]23)OCO4)cc(OC)c1O [4′S, 4β-S-(pyrimidine-2)-4-deoxy-4′-demethyl-podophyllotoxin] | 140 ± 3.82 | 11.2 ± 0.35 | 12.92 ± 0.08 | 14 ± 1.66
4 | COc1cc([C@@H]2c3cc4c(cc3[C@@H](Nc3ncnc5nc[nH]c35)[C@H]3COC(=O)[C@H]23)OCO4)cc(OC)c1O [6′N, 4β-NH-(purine-6)-4-deoxy-4′-demethylepipodophyllotoxin] | 19.2 ± 1.31 | 43.2 ± 1.36 | 20.5 ± 0.38 | 15.7 ± 1.61
5 | COc1cc([C@@H]2c3cc4c(cc3[C@@H](Sc3ccccn3)[C@H]3COC(=O)[C@H]23)OCO4)cc(OC)c1OC [Compound 3S, 4β-S-(pyridine-2)-4-deoxy-podophyllotoxin] | 89.7 ± 2.45 | 1.09 ± 0.06 | 0.9 ± 0.03 | 19.1 ± 1.52
6 | COc1cc([C@@H]2c3cc4c(cc3[C@@H](Sc3nc5ccccc5s3)[C@H]3COC(=O)[C@H]23)OCO4)cc(OC)c1O [5′S, 4β-S-(benzothiazole-2)-4-deoxy-4′-demethyl-podophyllotoxin] | 98.5 ± 3.51 | 1.87 ± 0.36 | 1.71 ± 0.07 | 8.25 ± 0.83
7 | COc1cc([C@@H]2c3cc4c(cc3[C@@H](Nc3nc5ccccc5s3)[C@H]3COC(=O)[C@H]23)OCO4)cc(OC)c1O [5′N, 4β-NH-(benzothiazole-2)-4-deoxy-4′-demethyl-podophyllotoxin] | 18.6 ± 1.48 | 10.5 ± 0.45 | 5.65 ± 0.11 | 14.2 ± 0.43
8 | COc1cc([C@@H]2c3cc4c(cc3[C@@H](Sc3ncnc5nc[nH]c35)[C@H]3COC(=O)[C@H]23)OCO4)cc(OC)c1O [6′S, 4β-S-(purine-6)-4-deoxy-4′-demethyl-podophyllotoxin] | 27.5 ± 2.35 | 45 ± 3.68 | 10.3 ± 0.41 | 7.45 ± 0.18
9 | COc1cc([C@@H]2c3cc4c(cc3[C@@H](Sc3ncccn3)[C@H]3COC(=O)[C@H]23)OCO4)cc(OC)c1OC [Compound 4S, 4β-S-(pyrimidine-2)-4-deoxy-podophyllotoxin] | 51.1 ± 3.17 | 0.49 ± 0.01 | 3.64 ± 0.46 | 2.4 ± 0.76
10 | COc1cc([C@@H]2c3cc4c(cc3[C@@H](Nc3ncnc5nc[nH]c35)[C@H]3COC(=O)[C@H]23)OCO4)cc(OC)c1OC [Compound 6N] | 13.6 ± 1.26 | 12.5 ± 1.35 | 5.85 ± 0.36 | 3.72 ± 0.11
